The assay deals with Daudi cells (AID positive). As to the kind of experiment: Compound primary screening: cell death in AID positive Daudi cells (Cell-Titer Glo, Day 7). The note with it: Homo sapiens, 168 h, read-out: Cellular activity in AID + (Daudi). The class given is cell-based. The essentials:
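AID-positive Daudi cells were seeded at 1250 cells per well and treated with serially diluted compound delivered from a DMSO/media master plate. Cultures were incubated at 37 °C, and cell death was measured on Day 7 with Cell-Titer Glo luminescence.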

[1] abbreviates: Daudi cells, AID positive, cell death on Day 7, Cell-Titer Glo.

SMILES strings stand for the structures. Where two headings read alike, the source gives them in different places.

For `CCNS(=O)(=O)c1cc(Nc2cccnc2)ccc1-c1cnc([C@H]2CC[C@H](NC(=O)OC(C)C)CC2)s1` [Compound 128, isopropyl trans-N-[4-[5-[2-(ethylsulfamoyl)-4-[(pyridin-3-yl)amino]phenyl]thiazol-2-yl]cyclohexyl]carbamate], under setting [1], the EC50 is less than 100 nM.

Regarding `CCNS(=O)(=O)c1cc(Nc2ccnn2C(C)C)ccc1-c1cnc([C@H]2CC[C@H](NC(=O)OC(C)C)CC2)s1` [Compound 129, isopropyl trans-N-[4-[5-[2-(ethylsulfamoyl)-4-[(1-isopropyl-1H-pyrazol-5-yl)amino]phenyl]thiazol-2-yl]cyclohexyl]carbamate], under setting [1], the EC50 was less than 100 nM.

With `CCNS(=O)(=O)c1cc(N2CCC(O)CC2)ccc1-c1cnc([C@H]2CC[C@H](NC(=O)OC(C)C)CC2)s1` [Compound 130, isopropyl trans-N-[4-[5-[2-(ethylsulfamoyl)-4-[4-hydroxypiperidin-1-yl]phenyl]thiazol-2-yl]cyclohexyl]carbamate], the EC50 under setting [1] was in the range of 100 to 1000 nM.

On to `CCNS(=O)(=O)c1cc(N(C)CCO)ccc1-c1cnc(C2CCC(NC(=O)OC(C)C)CC2)s1` (stereo not drawn) [Compound 131, isopropyl trans-N-[4-[5-[2-(ethylsulfamoyl)-4-[(2-hydroxyethyl) (methyl))amino]phenyl]thiazol-2-yl]cyclohexyl]carbamate], for which, under setting [1], the EC50 was less than 100 nM.

`CCNS(=O)(=O)c1cc(N(C)CCOC)ccc1-c1cnc(C2CCC(NC(=O)OC(C)C)CC2)s1` (stereo not drawn) [Compound 132, isopropyl trans-N-[4-[5-[2-(ethylsulfamoyl)-4-[(2-methoxyethyl) (methyl))amino]phenyl]thiazol-2-yl]cyclohexyl]carbamate]: the EC50 under setting [1] fell in the range of 100 to 1000 nM.

On to `CCNS(=O)(=O)c1cc(N2CCS(=O)(=O)CC2)ccc1-c1cnc([C@H]2CC[C@H](NC(=O)OC(C)C)CC2)s1` [Compound 133, isopropyl trans-N-[4-[5-[2-(ethylsulfamoyl)-4-[1,1-dioxidothiomorpholino]phenyl]thiazol-2-yl]cyclohexyl]carbamate], for which the EC50 under setting [1] lay within 1000 to 10000 nM.

With `CCNS(=O)(=O)c1cc(N2CCOCC2)ccc1-c1cnc([C@H]2CC[C@H](NC(=O)OC(C)C)CC2)s1` [Compound 134, isopropyl trans-N-[4-[5-[2-(ethylsulfamoyl)-4-[morpholino]phenyl]thiazol-2-yl]cyclohexyl]carbamate], the EC50 under setting [1] was 100 to 1000 nM.

Turning to `CCNS(=O)(=O)c1cc(N2CCCCC2)ccc1-c1cnc([C@H]2CC[C@H](NC(=O)OC(C)C)CC2)s1` [Compound 135, isopropyl trans-N-[4-[5-[2-(ethylsulfamoyl)-4-[piperidin-1-yl]phenyl]thiazol-2-yl]cyclohexyl]carbamate], under setting [1], the EC50 was in the range of 100 to 1000 nM.

With `CCNS(=O)(=O)c1cc(Nc2ccnc(C(C)C)n2)ccc1-c1cnc([C@H]2CC[C@H](NC(=O)OC(C)C)CC2)s1` [Compound 136, isopropyl trans-N-[4-[5-[2-(ethylsulfamoyl)-4-[(2-isopropylpyrimidin-4-yl)amino]phenyl]thiazol-2-yl]cyclohexyl]carbamate], under setting [1], the EC50 was less than 100 nM.

For the compound `CCNS(=O)(=O)c1cc(NC2COC2)ccc1-c1cnc([C@H]2CC[C@H](NC(=O)OC(C)C)CC2)s1` [Compound 137, isopropyl trans-N-[4-[5-[2-(ethylsulfamoyl)-4-[(oxetan-3-yl)amino]phenyl]thiazol-2-yl]cyclohexyl]carbamate], the EC50 under setting [1] was less than 100 nM.

Consider `CCNS(=O)(=O)c1cc(Nc2cncn2C(C)C)ccc1-c1cnc([C@H]2CC[C@H](NC(=O)OC(C)C)CC2)s1` [Compound 138, isopropyl trans-N-[4-[5-[2-(ethylsulfamoyl)-4-[(3-isopropylimidazol-4-yl)amino]phenyl]thiazol-2-yl]cyclohexyl]carbamate], for which, under setting [1], the EC50 is 100 to 1000 nM.

For the compound `CCNS(=O)(=O)c1cc(Nc2cn(C(C)C)cn2)ccc1-c1cnc([C@H]2CC[C@H](NC(=O)OC(C)C)CC2)s1` [Compound 139, isopropyl trans-N-[4-[5-[2-(ethylsulfamoyl)-4-[(1-isopropyl-1H-imidazol-4-yl)amino]phenyl]thiazol-2-yl]cyclohexyl]carbamate], the EC50 under setting [1] was less than 100 nM.

As to `CCNS(=O)(=O)c1cc(Nc2cncc(C(C)C)n2)ccc1-c1cnc([C@H]2CC[C@H](NC(=O)OC(C)C)CC2)s1` [Compound 140, isopropyl trans-N-[4-[5-[2-(ethylsulfamoyl)-4-[(6-isopropylpyrazin-2-yl)amino]phenyl]thiazol-2-yl]cyclohexyl]carbamate], the EC50 under setting [1] lay within 100 to 1000 nM.

`CCNS(=O)(=O)c1cc(Nc2ncc(C)[nH]2)ccc1-c1cnc([C@H]2CC[C@H](NC(=O)OC(C)C)CC2)s1` [Compound 141, isopropyl trans-N-[4-[5-[2-(ethylsulfamoyl)-4-[(5-methyl-1H-imidazol-2-yl)amino]phenyl]thiazol-2-yl]cyclohexyl]carbamate]: where the note is “Daudi”, the EC50 fell in the range of 1000 to 10000 nM.

For `CCNS(=O)(=O)c1cc(Nc2ncc(C(C)C)[nH]2)ccc1-c1cnc([C@H]2CC[C@H](NC(=O)OC(C)C)CC2)s1` [Compound 142, isopropyl trans-N-[4-[5-[2-(ethylsulfamoyl)-4-[(5-isopropyl-1H-imidazol-2-yl)amino]phenyl]thiazol-2-yl]cyclohexyl]carbamate], under setting [1], the EC50 lay in the range of 1000 to 10000 nM.

As to `CCNS(=O)(=O)c1cc(Nc2ccc(C(C)C)nn2)ccc1-c1cnc([C@H]2CC[C@H](NC(=O)OC(C)C)CC2)s1` [Compound 143, isopropyl trans-N-[4-[5-[2-(ethylsulfamoyl)-4-[(6-isopropylpyridazin-3-yl)amino]phenyl]thiazol-2-yl]cyclohexyl]carbamate], the EC50 under setting [1] was less than 100 nM.

With `CCNS(=O)(=O)c1cc(NC2CNC2)ccc1-c1cnc([C@H]2CC[C@H](NC(=O)OC(C)C)CC2)s1` [Compound 144, isopropyl trans-N-[4-[5-[4-(azetidin-3-ylamino)-2-(ethyl-sulfamoyl)phenyl]thiazol-2-yl]cyclohexyl]carbamate], under setting [1], the EC50 was 100 to 1000 nM.

For `CCNS(=O)(=O)c1cc(NC2CN(CC(C)C)C2)ccc1-c1cnc([C@H]2CC[C@H](NC(=O)OC(C)C)CC2)s1` [Compound 145, isopropyl trans-N-[4-[5-[2-(ethylsulfamoyl)-4-[(1-isobutyl-azetidin-3-yl)amino]phenyl]thiazol-2-yl]cyclohexyl]carbamate], the EC50 under setting [1] fell in the range of 100 to 1000 nM.

As to `CCNS(=O)(=O)c1cc(NC2CN(C(=O)C(C)C)C2)ccc1-c1cnc([C@H]2CC[C@H](NC(=O)OC(C)C)CC2)s1` [Compound 146, isopropyl trans-N-[4-[5-[2-(ethylsulfamoyl)-4-[[1-(2-methylpropanoyl)azetidin-3-yl]amino]phenyl]thiazol-2-yl]cyclohexyl]carbamate], the EC50 under setting [1] was less than 100 nM.

Regarding `CCNS(=O)(=O)c1cc(NC2(C)CNC2)ccc1-c1cnc([C@H]2CC[C@H](NC(=O)OC(C)C)CC2)s1` [Compound 147, isopropyl trans-N-[4-[5-[2-(ethylsulfamoyl)-4-[(3-methylazetidin-3-yl)amino]phenyl]thiazol-2-yl]cyclohexyl]carbamate], under setting [1], the EC50 fell in the range of 1000 to 10000 nM.

As to `CC(C)OC(=O)N[C@H]1CC[C@H](c2ncc(-c3ccc(Nc4ncc[nH]4)cc3S(=O)(=O)N3CCC3)s2)CC1` [Compound 148, isopropyl trans-N-[4-[5-[2-(azetidin-1-ylsulfonyl)-4-(1H-imidazol-2-ylamino)phenyl]thiazol-2-yl]cyclohexyl]carbamate], under setting [1], the EC50 was less than 100 nM.

Consider `CCNS(=O)(=O)c1cc(Nc2cn[nH]n2)ccc1-c1cnc([C@H]2CC[C@H](NC(=O)OC(C)C)CC2)s1` [Compound 149, isopropyl trans-N-[4-[5-[2-(ethylsulfamoyl)-4-(2H-triazol-4-ylamino)phenyl]thiazol-2-yl]cyclohexyl]carbamate], for which the EC50 under setting [1] was less than 100 nM.

For `CCNS(=O)(=O)c1cc(N(C)c2ncc[nH]2)ccc1-c1cnc([C@H]2CC[C@H](NC(=O)OC(C)C)CC2)s1` [Compound 150, isopropyl trans-N-[4-[5-[2-(ethylsulfamoyl)-4-[1H-imidazol-2-yl(methyl)amino]phenyl]thiazol-2-yl]cyclohexyl]carbamate], under setting [1], the EC50 is 100 to 1000 nM.

As for `CC(C)OC(=O)N[C@H]1CC[C@H](c2ncc(-c3ccc(Nc4nnc[nH]4)cc3S(=O)(=O)NC(C)(C)C)s2)CC1` [Compound 151, isopropyl trans-N-[4-[5-[2-(tert-butylsulfamoyl)-4-(4H-1,2,4-triazol-3-ylamino)phenyl]thiazol-2-yl]cyclohexyl]carbamate], the EC50 under setting [1] is less than 100 nM.

Consider `CCNS(=O)(=O)c1cc(Nc2nnc[nH]2)ccc1-c1cnc([C@H]2CC[C@H](NC(=O)OC(C)C)CC2)s1` [Compound 152, isopropyl trans-N-[4-[5-[2-(ethylsulfamoyl)-4-(4H-1,2,4-triazol-3-ylamino)phenyl]thiazol-2-yl]cyclohexyl]carbamate], for which the EC50 under setting [1] is less than 100 nM.

Take `CC(C)OC(=O)N[C@H]1CC[C@H](c2ncc(-c3ccc(Nc4ncco4)cc3S(=O)(=O)N3CCCC3)s2)CC1` [Compound 153, isopropyl trans-[4-[5-[4-(oxazol-2-ylamino)-2-pyrrolidin-1-ylsulfonyl-phenyl]thiazol-2-yl]cyclohexyl]carbamate]: the EC50 under setting [1] was less than 100 nM.

Consider `CCNS(=O)(=O)c1cc(Nc2nccn2C(C)C)ccc1-c1cnc([C@H]2CC[C@H](NC(=O)OC(C)C)CC2)s1` [Compound 154, isopropyl trans-N-[4-[5-[2-(ethylsulfamoyl)-4-[(1-isopropylimidazol-2-yl)amino]phenyl]thiazol-2-yl]cyclohexyl]carbamate], for which the EC50 under setting [1] was less than 100 nM.

As for `CCNS(=O)(=O)c1cc(Nc2ccnc(Cl)n2)ccc1-c1cnc([C@H]2CC[C@H](NC(=O)OC(C)C)CC2)s1` [Compound 155, isopropyl trans-N-[4-[5-[4-[(2-chloropyrimidin-4-yl)amino]-2-(ethylsulfamoyl)phenyl]thiazol-2-yl]cyclohexyl]carbamate], the EC50 under setting [1] was in the range of 100 to 1000 nM.

(Values after patent US11932636B2, “RAD51 inhibitors” (Cyteir Therapeutics, Inc., priority 2019, dated 2024).)
